Laboratory results from the Deep4Chem optical property database.

Experiment: solvent given as SMILES

Work on `COc1ccc(C#Cc2c3cc4cc(C)sc4cc3c(C#Cc3ccc(OC)cc3)c3cc4cc(C)sc4cc23)cc1` yielded a fluorescence lifetime (in ClCCl) of 7.7 ns.

With `Fc1cccc(-[c+]2c3ccccc3sc3ccccc32)c1` the fluorescence lifetime (in CC#N) was 1.3 ns.

Compound `CCCCC(CC)CN1C(=O)c2cc(Oc3ccc(OC)cc3)c3c4c(Oc5ccc(C(C)(C)C)cc5)cc5c6c(cc(Oc7ccc(C(C)(C)C)cc7)c(c7c(Oc8ccc(OC)cc8)cc(c2c37)C1=O)c64)C(=O)N(c1c(C(C)C)cccc1C(C)C)C5=O` (centres undefined) has a fluorescence lifetime (in Cc1ccccc1) of 5.32 ns.

Work on `COC(=O)c1ccc(C2=C(/C=C/c3ccc(OC)cc3)O[B-](F)(F)[O+]=C2/C=C/c2ccc(OC)cc2)cc1` yielded a fluorescence lifetime (in ClCCl) of 1.34 ns.

Compound `O=C([O-])c1cc2c(ccc3ccccc32)oc1=O` has a fluorescence lifetime (in O) of 12.8 ns.

Work on `CC1=CC2=Nc3nc(C)[n+](C)cc3CN2C=C1` yielded a fluorescence lifetime (in CC#N) of 5.45 ns, a fluorescence lifetime (in CCO) of 5.31 ns and a fluorescence lifetime (in O) of 5.23 ns.

For `Nc1ccc2[nH]ncc2c1`, the fluorescence lifetime (in C1CCCCC1) was 4.9 ns, the fluorescence lifetime (in CC#N) was 4.7 ns and the fluorescence lifetime (in CO) was 6.4 ns. The fluorescence lifetime (in O) was 12.5 ns.

Compound `CCCCCCC(CCCCCC)N1C(=O)c2cccc3c(-c4ccc(OC)cc4)ccc(c23)C1=O` has a fluorescence lifetime (in CCCCCC) of 2.65 ns, a fluorescence lifetime (in CCCCCCCCCCCCCC) of 3.12 ns and a fluorescence lifetime (in CCCCCCCCCCCO) of 4.78 ns. It also gave a fluorescence lifetime (in CCCCO) of 5.18 ns, a fluorescence lifetime (in CN(C)C=O) of 5.24 ns and a fluorescence lifetime (in Cc1ccccc1) of 3.5 ns. The fluorescence lifetime (in ClC(Cl)Cl) was 4.11 ns.

With `Cc1cc(C)c(B(c2c(C)cc(C)cc2C)c2cc3cc(N(C)C)c4ccccc4c3c3c2ccc2ccccc23)c(C)c1` the fluorescence lifetime (in C1CCCCC1) was 7 ns.

For `CCC1=C(C)C2=Cc3c(I)c(I)cn3[B-](F)(F)[N+]2=C1C`, the fluorescence lifetime (in C1CCCCC1) was 0.212 ns, the fluorescence lifetime (in CC(C)=O) was 0.097 ns and the fluorescence lifetime (in CCO) was 0.09 ns. It also gave a fluorescence lifetime (in CCOC(C)=O) of 0.116 ns, a fluorescence lifetime (in CO) of 0.087 ns and a fluorescence lifetime (in OCC(F)(F)F) of 0.11 ns.

`CCCCCCN1C(=O)c2cccc3cc(/N=C\c4c[nH]c5c4ccc4ccccc45)cc(c23)C1=O` gave a fluorescence lifetime (in ClC(Cl)Cl) of 11.6 ns.

`Cc1cccc(-c2cccc(C)c2)c1` showed a fluorescence lifetime (in C1CCCCC1) of 18 ns.

Compound `CCCCCCN(CCCCCC)c1ccc(C#Cc2ccc(C(F)(F)F)cc2)cc1` has a fluorescence lifetime (in ClCCl) of 2.1 ns.

`c1ccc2cc(-n3cnc4ccccc43)ccc2c1` gave a fluorescence lifetime (in C1CCCCC1) of 4.7 ns, a fluorescence lifetime (in CCOC(C)=O) of 4.1 ns and a fluorescence lifetime (in CO) of 5.1 ns.

In the case of `COc1c2ccccc2c(OC)c2c1c1cccc(OC)c1n2C`, the fluorescence lifetime (in C1CCCCC1) was 21.8 ns, the fluorescence lifetime (in CC#N) was 26.7 ns and the fluorescence lifetime (in CO) was 25.2 ns. For the same compound, the fluorescence lifetime (in ClCCl) was 22 ns.

`C[Si]1(C)c2cc(-c3ccccc3)ccc2C=Cc2ccc(-c3ccccc3)cc21` gave a fluorescence lifetime (in ClCCl) of 1.6 ns.

With `Nc1ccc2c(-c3ccc(C(=O)CN4C(=O)CCC4=O)cc3C(=O)[O-])c3ccc(=[NH2+])c(S(=O)(=O)[O-])c-3oc2c1S(=O)(=O)[O-]` the fluorescence lifetime (in O) was 4.1 ns.

In the case of `O=P1(c2ccccc2)C(c2cc(C(F)(F)F)cc(C(F)(F)F)c2)=Cc2c3ccc4cccc5ccc(c6cc(-c7ccccc7)n1c26)c3c45` (centres undefined), the fluorescence lifetime (in C1CCCCC1) was 1.9 ns, the fluorescence lifetime (in C1CCOC1) was 3.1 ns and the fluorescence lifetime (in C1COCCO1) was 2.6 ns. It also gave a fluorescence lifetime (in CC#N) of 3.7 ns, a fluorescence lifetime (in CC(C)=O) of 3.6 ns and a fluorescence lifetime (in CO) of 3.8 ns. For the same compound, the fluorescence lifetime (in Cc1ccccc1) was 2.5 ns, the fluorescence lifetime (in ClC(Cl)Cl) was 2.4 ns and the fluorescence lifetime (in ClCCl) was 2.9 ns.

`CC(C)(C)c1ccc(-c2nc3c4ccc(-c5ccc6ccccc6c5)cc4c4cc(-c5ccc6ccccc6c5)ccc4c3n2-c2ccc(C(C)(C)C)cc2)cc1` showed a fluorescence lifetime (in ClCCl) of 6.6 ns.

Work on `O=C1/C(=C2\Sc3ccccc3C2=O)Sc2ccccc21` yielded a fluorescence lifetime (in C1COCCO1) of 12.4 ns, a fluorescence lifetime (in CN(C)C=O) of 6.9 ns and a fluorescence lifetime (in CO) of 0.68 ns. It also gave a fluorescence lifetime (in CS(C)=O) of 0.17 ns and a fluorescence lifetime (in c1ccccc1) of 12.2 ns.

For `CCCCC(CC)CN1C(=O)C2=C(c3ccc(-c4ccc(C5=C6C(C)=CC(C)=[N+]6[B-](F)(F)n6c(C)cc(C)c65)cc4)s3)N(CC(CC)CCCC)C(=O)C2=C1c1ccc(-c2ccc(C3=C4C(C)=CC(C)=[N+]4[B-](F)(F)n4c(C)cc(C)c43)cc2)s1` (centres undefined), the fluorescence lifetime (in Cc1ccccc1) was 3.36 ns.

Work on `N#Cc1cc2ccccc2[nH]1` yielded a fluorescence lifetime (in C1CCOC1) of 2.9 ns, a fluorescence lifetime (in C1COCCO1) of 2.9 ns and a fluorescence lifetime (in CC#N) of 0.9 ns. For the same compound, the fluorescence lifetime (in CS(C)=O) was 0.4 ns.

In the case of `COc1ccc(-c2nc(/C(C#N)=C/c3ccc(C#N)cc3)sc2-c2ccc(OC)cc2)cc1`, the fluorescence lifetime (in CC#N) was 2.9 ns.

`COc1ccc(/C2=C3N=C(C(c4ccccc4)=C/3c3ccccc3)/C(c3ccc(OC)cc3)=c3\[nH]/c(c(-c4ccccc4)c3-c3ccccc3)=C(/c3ccc(OC)cc3)C3=N/C(=C(/c4ccc(OC)cc4)c4[nH]c2c(-c2ccccc2)c4-c2ccccc2)C(c2ccccc2)=C3c2ccccc2)cc1` showed a fluorescence lifetime (in ClCCl) of 0.921 ns.

With `CCCCn1c(-c2ccc(-c3nnc(-c4ccc5ccccc5c4)o3)cc2)nc2c3ccccc3c3ccccc3c21` the fluorescence lifetime (in ClCCl) was 1.78 ns.

Work on `F[B-]1(F)n2c(cc3c4ccccc4oc32)C(c2ccccc2)=C2C=c3c(oc4ccccc34)=[N+]21` yielded a fluorescence lifetime (in C1CCCCC1) of 3.99 ns, a fluorescence lifetime (in CCOC(C)=O) of 4.1 ns and a fluorescence lifetime (in CO) of 4.02 ns.
